Assay results as given in US7541353B2, “Compounds for the treatment of hepatitis C” (Bristol-Myers Squibb Company, priority 2007, dated 2009).
Where two headings read alike, the source gives them in different places.

How the values were obtained:
[1] = system: HCV replicon cells; experiment: HCV replicon FRET assay; assay type: cell-based
Method: FRET Assay Preparation. The HCV FRET screening assay was performed in 96-well cell culture plates. The FRET peptide (Anaspec, Inc.) (Taliani et al., Anal. Biochem. 1996, 240, 60-67) contains a fluorescence donor, EDANS, near one end of the peptide and an acceptor, DABCYL, near the other end. The fluorescence of the peptide is quenched by […] resonance energy transfer (RET) between the donor and the acceptor, but as the NS3 protease cleaves the peptide the products are released from RET quenching and the fluorescence of the donor becomes apparent. The assay reagent was made as follows: 5× cell Luciferase cell culture lysis reagent from Promega (#E153A) diluted to 1× with dH2O, NaCl added to 150 mM final, the FRET peptide diluted to 20 μM final from a 2 mM stock.
To prepare plates, HCV replicon cells, with or without a Renilla luciferase reporter gene, were trypsinized and plated in a 96-well plate with titrated test compounds added in columns 3 through 12; columns 1 and 2 contained a control compound (HCV control inhibitor), and the bottom row contained cells with DMSO only. The plates were then placed in a CO2 incubator at 37° C.
Assays. Subsequent to addition of the test compounds described above (FRET Assay Preparation), at various times the plate was removed and Alamar blue solution (Trek Diagnostics, #00-100) was added to measure cellular toxicity. After reading in a Cytoflour 4000 instrument (PE Biosystems), plates were rinsed with PBS and then used for FRET assay by the addition of 30 ul of the FRET peptide assay reagent described above (FRET Assay Preparation) per well. The plate was then placed into the Cytoflour 4000 instrument which had been set to 340 excite/490 emission, automatic mode for up to 20 cycles and the plate read in a kinetic mode. Typically, the signal to noise using an endpoint analysis after the reads was at least three-fold. Alternatively, after Alamar blue reading, plates were rinsed with PBS, then used for luciferase assay using the Promega Dual-Glo Luciferase Assay System or the Promega EnduRen Live Cell Substrate assay.
Compound analysis was performed by quantification of the relative HCV replicon inhibition and the relative cytotoxicity values. To calculate cytoxicity values, the average Alamar Blue fluorescence signals from the control wells were set as 100% non-toxic. The individual signals in each of the compound test wells were then divided by the average control signal and multiplied by 100% to determine […]. To calculate the HCV replicon inhibition values, an average background value was obtained from the two wells containing the highest amount of HCV control inhibitor at the end of the assay period. These numbers were similar to those obtained from naïve Huh-7 cells. The background numbers were then subtracted from the average signal obtained from the control wells and this number was used as 100% activity. The individual signals in each of the compound test wells were then divided by the averaged control values after background subtraction and multiplied by 100% to determine percent activity. EC50 values were calculated as the concentration which caused a 50% reduction in FRET or luciferase activity. The two numbers generated for the compound plate, percent cytoxicity and percent activity, were used to determine compounds of interest for further analysis.

[2] = target: T1, HCV NS5B (Hepatitis C virus genotype 1b, UniProt Q9WMX2); experiment: Modified HCV NS5B RdRp enzyme assay (preincubation protocol); assay type: biochemical
T1 construct: The cDNA encoding the NS5B protein of HCV, genotype 1b; made in house; host or cells: E. coli BL21(DE3)
Method: HCV NS5B RdRp cloning, expression, and purification. The cDNA encoding the NS5B protein of HCV, genotype 1b, was cloned into the pET21a expression vector. The protein was expressed with an 18 amino acid C-terminal truncation to enhance the solubility. The E. coli competent cell line BL21(DE3) was used for expression of the protein. Cultures were grown at 37° C. for ˜4 hours until the cultures reached an optical density of 2.0 at 600 nm. The cultures were cooled to 20° C. and induced with 1 mM IPTG. Fresh ampicillin was added to a final concentration of 50 μg/ml and the cells were grown overnight at 20° C.
Cell pellets (3L) were lysed for purification to yield 15-24 mgs of purified NS5B. The lysis buffer consisted of 20 mM Tris-HCl, pH 7.4, 500 mM NaCl, 0.5% triton X-100, 1 mM DTT, 1 mM EDTA, 20% glycerol, 0.5 mg/ml lysozyme, 10 mM MgCl2, 15 ug/ml deoxyribonuclease I, and Complete™ protease inhibitor tablets (Roche). After addition of the lysis buffer, frozen cell pellets were resuspended using a tissue homogenizer. To reduce the viscosity of the sample, aliquots of the lysate were sonicated on ice using a microtip attached to a Branson sonicator. The sonicated lysate was centrifuged at 100,000×g for 1 hr at 4° C. and filtered through a 0.2 μm filter unit (Corning).
The protein was purified using two sequential chromatography steps: Heparin sepharose CL-6B and polyU sepharose 4B (Pharmacia). The chromatography buffers were identical to the lysis buffer but contained no lysozyme, deoxyribonuclease I, MgCl2 or protease inhibitor and the NaCl concentration of the buffer was adjusted according to the requirements for charging the protein onto the column. Each column was eluted with a NaCl gradient which varied in length from 5-50 column volumes depending on the column type. After the final chromatography step, the resulting purity of the enzyme is >90% based on SDS-PAGE analysis. The enzyme was aliquoted and stored at −80° C.
Standard HCV NS5B RdRp enzyme assay. HCV RdRp genotype 1b assays were run in a final volume of 60 μl in 96 well plates (Corning 3600). The assay buffer is composed of 20 mM Hepes, pH 7.5, 2.5 mM KCl, 2.5 mM MgCl2, 1 mM DTT, 1.6 U RNAse inhibitor (Promega N2515), 0.01 mg/ml BSA (Sigma B6917), and 2% glycerol. All compounds were serially diluted (3-fold) in DMSO and diluted further in water such that the final concentration of DMSO in the assay was 2%. HCV RdRp genotype 1b enzyme was used at a final concentration of 28 nM. A polyA template was used at 6 nM, and a biotinylated oligo-dT12 primer was used at 180 nM final concentration. Template was obtained commercially (Amersham 27-4110). Biotinylated primer was prepared by Sigma Genosys. 3H-UTP was used at 0.6 μCi (0.29 μM total UTP). Reactions were initiated by the addition of enzyme, incubated at 30° C. for 60 min, and stopped by adding 25 μl of 50 mM EDTA containing SPA beads (4 μg/μl, Amersham RPNQ 0007). Plates were read on a Packard Top Count NXT after >1 hr incubation at room temperature.
Modified HCV NS5B RdRp enzyme assay. A modified enzyme assay was performed essentially as described for the standard enzyme assay except for the following: The biotinylated oligo dT12 primer was precaptured on streptavidin-coated SPA beads by mixing primer and beads in assay buffer and incubating at room temperature for one hour. Unbound primer was removed after centrifugation. The primer-bound beads were resuspended in 20 mM Hepes buffer, pH 7.5 and used in the assay at final concentrations of 20 nM primer and 0.67 μg/μl beads. Order of addition in the assay: enzyme (1.75 nM) was added to diluted compound followed by the addition of a mixture of template (0.36 nM), 3H-UTP (0.6 μCi, 0.29 μM), and primer-bound beads, to initiate the reaction; concentrations given are final. Reactions were allowed to proceed for 4 hours at 30° C.
IC50 values for compounds were determined using seven different [I]. […]

[3] = preincubation protocol, read-out: IC50

T1 sequence (Q9WMX2 2420-2992): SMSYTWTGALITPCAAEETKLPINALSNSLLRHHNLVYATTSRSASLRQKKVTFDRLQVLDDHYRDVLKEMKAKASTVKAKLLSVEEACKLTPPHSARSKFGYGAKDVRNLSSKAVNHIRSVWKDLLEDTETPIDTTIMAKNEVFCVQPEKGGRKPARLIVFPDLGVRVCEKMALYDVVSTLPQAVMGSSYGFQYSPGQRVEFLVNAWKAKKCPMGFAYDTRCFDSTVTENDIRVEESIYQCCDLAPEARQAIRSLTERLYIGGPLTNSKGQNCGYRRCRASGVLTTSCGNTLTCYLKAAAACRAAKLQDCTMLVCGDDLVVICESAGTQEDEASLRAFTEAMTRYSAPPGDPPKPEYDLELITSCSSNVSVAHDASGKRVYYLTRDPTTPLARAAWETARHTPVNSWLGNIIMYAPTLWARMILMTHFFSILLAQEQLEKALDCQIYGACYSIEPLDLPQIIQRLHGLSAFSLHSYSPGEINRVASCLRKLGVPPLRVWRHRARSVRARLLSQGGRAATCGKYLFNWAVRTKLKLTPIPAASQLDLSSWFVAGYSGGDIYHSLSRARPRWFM

Structure (SMILES) | EC50 ([1]; Hepatitis C virus) | IC50 [2] | further results
COc1ccc2c(c1)C1CC1(C(=O)N1C3CCC1CC(O)(C(F)(F)F)C3)Cn1c-2c(C2CCCCC2)c2ccc(C(=O)NS(=O)(=O)N(C)C)cc21 (stereo not drawn) | 4.58 to 500 nM | 4.58 to 500 nM | 
COc1ccc2c(c1)C1CC1(C(=O)N1C3COCC1COC3)Cn1c-2c(C2CCCCC2)c2ccc(C(=O)NS(=O)(=O)C3CCCC3)cc21 (stereo not drawn) | 4.58 to 500 nM | 4.58 to 500 nM | 
COc1ccc2c(c1)C1CC1(C(=O)N1C3CCC1CC(=O)C3)Cn1c-2c(C2CCCCC2)c2ccc(C(=O)NS(=O)(=O)N(C)C)cc21 (stereo not drawn) | 4.58 to 500 nM | 4.58 to 500 nM | 
COc1ccc2c(c1)C1CC1(C(=O)N1C3CCC1CC(NC(C)C)C3)Cn1c-2c(C2CCCCC2)c2ccc(C(=O)NS(=O)(=O)N(C)C)cc21 (stereo not drawn) | 4.58 to 500 nM | 4.58 to 500 nM | 
COc1ccc2c(c1)C1CC1(C(=O)N1C3COCC1COC3)Cn1c-2c(C2CCCCC2)c2ccc(C(=O)NS(=O)(=O)C(C)C)cc21 (stereo not drawn) | 4.58 to 500 nM | 4.58 to 500 nM | 
COc1ccc2c(c1)C1CC1(C(=O)N1C3CCC1CC(N1CCCCC1)C3)Cn1c-2c(C2CCCCC2)c2ccc(C(=O)NS(=O)(=O)N(C)C)cc21 (stereo not drawn) | 4.58 to 500 nM | 4.58 to 500 nM | 
COc1ccc2c(c1)C1CC1(C(=O)N1C3CCC1CC(N(C)Cc1ccccc1)C3)Cn1c-2c(C2CCCCC2)c2ccc(C(=O)NS(=O)(=O)C(C)C)cc21 (stereo not drawn) [drawing 36] | 4.58 to 500 nM | 4.58 to 500 nM | 
COc1ccc2c(c1)C1CC1(C(=O)N1C3CCC1COC3)Cn1c-2c(C2CCCCC2)c2ccc(C(=O)NS(=O)(=O)N(C)C)cc21 (stereo not drawn) | 4.58 to 500 nM | 4.58 to 500 nM | 
COc1ccc2c(c1)[C@@H]1C[C@]1(C(=O)N1C3CCC1CC(C)(O)C3)Cn1c-2c(C2CCCCC2)c2ccc(C(=O)NS(=O)(=O)N(C)C)cc21 (stereo partly drawn) [drawing 47] |  |  | EC50 ([1]; FRET assay): 4.58 to 500 nM; IC50 ([2]; preincubation protocol): 4.58 to 500 nM
COc1ccc2c(c1)C1CC1(C(=O)N1C3CCC1CC(O)(C(C)(C)C)C3)Cn1c-2c(C2CCCCC2)c2ccc(C(=O)NS(=O)(=O)N(C)C)cc21 (stereo not drawn) | 4.58 to 500 nM | 4.58 to 500 nM | 
COc1ccc2c(c1)C1CC1(C(=O)N1C3CCCC1COC3)Cn1c-2c(C2CCCCC2)c2ccc(C(=O)NS(=O)(=O)CCC(F)(F)F)cc21 (stereo not drawn) | 4.58 to 500 nM | 4.58 to 500 nM | 
COc1ccc2c(c1)C1CC1(C(=O)N1C3CCCC1COC3)Cn1c-2c(C2CCCCC2)c2ccc(C(=O)NS(=O)(=O)C3CCCCC3)cc21 (stereo not drawn) [drawing 68] | 4.58 to 500 nM | 4.58 to 500 nM | 
COc1ccc2c(c1)C1CC1(C(=O)N1C3CCC1CC(N(C)Cc1ccccc1)C3)Cn1c-2c(C2CCCCC2)c2ccc(C(=O)NS(=O)(=O)C(C)C)cc21 (stereo not drawn) [drawing 56] |  |  | EC50 ([1]; FRET assay): 4.58 to 500 nM; IC50 ([2]; preincubation protocol): 4.58 to 500 nM
CCNC1CC2CCC(C1)N2C(=O)C12CC1c1cc(OC)ccc1-c1c(C3CCCCC3)c3ccc(C(=O)NS(=O)(=O)N(C)C)cc3n1C2 (stereo not drawn) | 4.58 to 500 nM | 4.58 to 500 nM | 
COc1ccc2c(c1)[C@@H]1C[C@]1(C(=O)N1C3COCC1COC3)Cn1c-2c(C2CCCCC2)c2ccc(C(=O)NS(=O)(=O)N(C)C)cc21 | 4.58 to 500 nM | 4.58 to 500 nM | 
COc1ccc2c(c1)C1CC1(C(=O)N1C3COCC1COC3)Cn1c-2c(C2CCCCC2)c2ccc(C(=O)NS(=O)(=O)CC(C)C)cc21 (stereo not drawn) | 4.58 to 500 nM | 4.58 to 500 nM | 
COc1ccc2c(c1)C1CC1(C(=O)N1CC3CCC(C1)O3)Cn1c-2c(C2CCCCC2)c2ccc(C(=O)NS(=O)(=O)N(C)C)cc21 (stereo not drawn) | 4.58 to 500 nM |  | IC50 [2, 3]: 4.58 to 500 nM
COc1ccc2c(c1)C1CC1(C(=O)N1C3CCC[C@@H]1COC3)Cn1c-2c(C2CCCCC2)c2ccc(C(=O)NS(=O)(=O)CC(C)C)cc21 (stereo partly drawn) | 4.58 to 500 nM | 4.58 to 500 nM | 
COc1ccc2c(c1)C1CC1(C(=O)C1C3CCC1CC3)Cn1c-2c(C2CCCCC2)c2ccc(C(=O)NS(=O)(=O)N(C)C)cc21 (stereo not drawn) |  |  | EC50 ([1]; Hepatitis C virus, FRET assay, read-out: EC50): 4.58 to 500 nM; IC50 [2, 3]: 4.58 to 500 nM
COc1ccc2c(c1)C1CC1(C(=O)N1C3CCC1CC(N(C)C)C3)Cn1c-2c(C2CCCCC2)c2ccc(C(=O)NS(=O)(=O)N(C)C)cc21 (stereo not drawn) | 4.58 to 500 nM | 4.58 to 500 nM | 
CCC(C)S(=O)(=O)NC(=O)c1ccc2c(C3CCCCC3)c3n(c2c1)CC1(C(=O)N2C4CCC2CC(NC)C4)CC1c1cc(OC)ccc1-3 (stereo not drawn) | 4.58 to 500 nM | 4.58 to 500 nM | 
COc1ccc2c(c1)C1CC1(C(=O)N1C3CCC1CC(O)(C1CC1)C3)Cn1c-2c(C2CCCCC2)c2ccc(C(=O)NS(=O)(=O)N(C)C)cc21 (stereo not drawn) | 4.58 to 500 nM | 4.58 to 500 nM | 
COc1ccc2c(c1)C1CC1(C(=O)N1C3CCC1CC(N(CCN(C)C)Cc1ccccc1)C3)Cn1c-2c(C2CCCCC2)c2ccc(C(=O)NS(=O)(=O)N3CCC3)cc21 (stereo not drawn) | 4.58 to 500 nM | 4.58 to 500 nM | 
COc1ccc2c(c1)C1CC1(C(=O)N1C3CCC[C@@H]1COC3)Cn1c-2c(C2CCCCC2)c2ccc(C(=O)NS(=O)(=O)C(C)C)cc21 (stereo partly drawn) | 4.58 to 500 nM | 4.58 to 500 nM | 
